Laboratory results as given in patent US20080280879A1, “SUBSTITUTED HETEROCYCLIC DERIVATIVES AND THEIR PHARMACEUTICAL USE AND COMPOSITIONS” (priority 2007, published 2008).
Converted amounts (≈) assume the structure as drawn.

Key:
Type in all cases: cell-based, Staphylococcus aureus
[1] = tested on: Staph aureus 1095 MRSA; assay: MIC, microtiter broth dilution (CLSI M7-A7), Assay 1, Table 12 column A, no serum; conditions: Assay 1, no serum; for MIC: Staphylococcus aureus, MRSA
Method: (§1) The assays described herein include a panel of bacterial isolates of Staphylococcus aureus. Assay 1 comprises the strains noted in Columns A through E, and Assay 2 comprises the strains noted in Columns F through H. The assays are performed in microtiter trays according to Methods for Dilution Antimicrobial Susceptibility Tests for Bacteria that Grow Aerobically; Approved Standard-7th edition (M7-A7) and interpreted according to the Performance Standards for Antimicrobial Susceptibility Testing; 16th Informational Supplement (M100-S16) published by Clinical Laboratory Standards Institute (CLSI). The antibacterial activity is presented in the form of a minimum inhibitory concentration (MIC) value in μg/ml format. The MIC value represents the lowest concentration of drug measured which prevented macroscopically visible growth under the conditions and specific doses tested. The compounds were initially dissolved in DMSO as 30 mM stocks and diluted accordingly to adjust to a concentration of 10 mg/ml or the compounds were dissolved in DMSO at a concentration of 10 mg/ml. For assessment of activity in the presence of human serum, S. aureus 1146 and S. aureus 1031 were inoculated into Mueller-Hinton Broth with 50% pooled inactivated human serum. In some cases, compounds were tested more than once in a particular assay. Where noted, the MIC value shown in Table 12 represents the geometric mean of the data from multiple runs.
(§2) It should be understood that the data in columns A-H represents MIC data in μg/ml and the notation “<=” means ‘less than or equal to’.

[2] = tested on: Staph aureus 2812; assay: MIC, microtiter broth dilution (CLSI M7-A7), Assay 1, Table 12 column E, no serum; conditions: for MIC: Staphylococcus aureus, 2812, Staph aureus 2812, Assay 1, no serum; for MIC, column E: Staph aureus 2812, Assay 1, no serum
Method: as §1, §2

[3] = tested on: Staph aureus 1146; assay: MIC, microtiter broth dilution (CLSI M7-A7), Assay 1, Table 12 column B, no serum; conditions: for MIC: Staphylococcus aureus, 1146, Staph aureus 1146, Assay 1, no serum; for MIC, column B: Staph aureus 1146, Assay 1, no serum
Method: as §1, §2

[4] = tested on: Staph aureus 2811; assay: MIC, microtiter broth dilution (CLSI M7-A7), Assay 1, Table 12 column D, no serum; conditions: for MIC: Staphylococcus aureus, 2811, Staph aureus 2811, Assay 1, no serum; for MIC, column D: Staph aureus 2811, Assay 1, no serum
Method: as §1, §2

[5] = tested on: Staph aureus 1146; assay: MIC in Mueller-Hinton Broth with 50% pooled inactivated human serum, Assay 1, Table 12; conditions: for MIC: Staphylococcus aureus, 1146, Staph aureus 1146, Assay 1, 50% human serum, read-out: MIC, column C; for MIC, column C: Staph aureus 1146, Assay 1, 50% human serum
Method: as §1, §2

Structure (SMILES)	MIC [1] [µg/mL]	MIC [2] [µg/mL]	MIC [3] [µg/mL]	MIC [4] [µg/mL]	MIC [5] [µg/mL]	MIC, column A [1]	MIC, column E [2]	MIC, column B [3]	MIC, column D [4]	MIC, column C [5] [µg/mL]
COc1ccc2ncc(F)c(CCCC3(C(=O)O)CCN(C4CC(c5nc(C)no5)C4)CC3)c2c1 (centres unmarked) [Example 98, 4-[3-(3-fluoro-6-methoxyquinolin-4-yl)propyl]-1-[3-(3-methyl-1,2,4-oxadiazol-5-yl)cyclobutyl]piperidine-4-carboxylic acid]	4 (≈ 8.29 µM)	4 (≈ 8.29 µM)	2 (≈ 4.14 µM)	2 (≈ 4.14 µM)	64 (≈ 133 µM)					
COc1ccc2ncc(F)c(CCCC3(C(=O)O)CCN(C4CC(c5c(F)cccc5F)C4)C3)c2c1 (centres unmarked) [Example 180, 1-[3-(2,6-difluorophenyl)cyclobutyl]-3-[3-(3-fluoro-6-methoxyquinolin-4-yl)propyl]pyrrolidine-3-carboxylic acid]						<0.0625 µg/mL	<0.0625 µg/mL	<0.0625 µg/mL	<0.0625 µg/mL	16.0 (≈ 32.1 µM)
COc1ccc2nccc(C(CC[C@@H]3CCN(C4CC(c5ccccc5)C4)C[C@@H]3C(=O)O)N(C)C)c2c1 (stereo partly drawn) [Example 140, (3R,4R)-4-[3-(dimethylamino)-3-(6-methoxyquinolin-4-yl)propyl]-1-(3-phenylcyclobutyl)piperidine-3-carboxylic acid]	16 (≈ 31.9 µM)	16 (≈ 31.9 µM)	16 (≈ 31.9 µM)	16 (≈ 31.9 µM)	64 (≈ 128 µM)					
COc1ccc2nccc([C@H](O)CC[C@@H]3CCN(C4CC(c5ccccc5F)C4)C[C@@H]3C(=O)O)c2c1 (stereo partly drawn) [Example 90, (3R,4R)-1-[3-(2-fluorophenyl)cyclobutyl]-4-[(3R)-3-hydroxy-3-(6-methoxyquinolin-4-yl)propyl]piperidine-3-carboxylic acid]	< 0.0625	< 0.0625	< 0.0625	< 0.0625	1 (≈ 2.03 µM)					
COc1ccc2ncc(Cl)c(C(O)CC[C@@H]3CCN(C4CC(c5cc(F)ccc5F)C4)C[C@@H]3C(=O)O)c2c1 (stereo partly drawn) [Example 186, (3R,4R)-4-[3-(3-chloro-6-methoxyquinolin-4-yl)-3-hydroxypropyl]-1-[3-(2,5-difluorophenyl)cyclobutyl]piperidine-3-carboxylic acid]			< 0.0625	< 0.0625		<0.0625 µg/mL	<0.0625 µg/mL			2.00 (≈ 3.67 µM)
COc1ccc2nccc([C@@H](O)CC[C@@H]3CCN(C4CC(c5c(F)cc(F)cc5F)C4)C[C@@H]3C(=O)O)c2c1 (stereo partly drawn) [Example 69, (3R,4R)-4-[(3S)-3-hydroxy-3-(6-methoxyquinolin-4-yl)propyl]-1-[3-(2,4,6-trifluorophenyl)cyclobutyl]piperidine-3-carboxylic acid]	0.5 (≈ 0.946 µM)	0.25 (≈ 0.473 µM)	0.125 (≈ 0.236 µM)	0.125 (≈ 0.236 µM)	2 (≈ 3.78 µM)					
COc1ccc2nccc([C@@H](O)CC[C@@H]3CCN(C4CC(C5CCCC5)C4)C[C@@H]3C(=O)O)c2c1 (stereo partly drawn) [Example 48, (3R,4R)-1-(3-cyclopentylcyclobutyl)-4-[(3S)-3-hydroxy-3-(6-methoxyquinolin-4-yl)propyl]piperidine-3-carboxylic acid]						0.25 µg/mL (≈ 0.536 µM)	0.125 µg/mL (≈ 0.268 µM)	0.125 µg/mL (≈ 0.268 µM)	0.125 µg/mL (≈ 0.268 µM)	1 (≈ 2.14 µM)
COc1ccc2nccc([C@@H](O)CC[C@@H]3CCN(C4CC(c5ccc(F)c(C#N)c5)C4)C[C@@H]3C(=O)O)c2c1 (stereo partly drawn) [Example 216, (3R,4R)-1-[3-(3-cyano-4-fluorophenyl)cyclobutyl]-4-[(3S)-3-hydroxy-3-(6-methoxyquinolin-4-yl)propyl] piperidine-3-carboxylic acid]	> 64	32 (≈ 61.8 µM)	16 (≈ 30.9 µM)	8 (≈ 15.5 µM)	64 (≈ 124 µM)					
COc1ccc2nccc(C(O)CC[C@@H]3CCN(C4CC(O)(c5ccccc5)C4)C[C@@H]3C(=O)O)c2c1 (mixture of isomers) [Example 95, (3R,4R)-4-[3-hydroxy-3-(6-methoxyquinolin-4-yl)propyl]-1-(3-hydroxy-3-phenylcyclobutyl)piperidine-3-carboxcylic acid]						>64 µg/mL	>64 µg/mL	16 µg/mL	>64 µg/mL	>64
COc1ccc2nccc(C(O)CC[C@@H]3CCN(C4CC(c5ccc(F)cc5)C4)C[C@@H]3C(=O)O)c2c1 (stereo partly drawn) [Example 88, (3R,4R)-1-[3-(4-fluorophenyl)cyclobutyl]-4-[3-hydroxy-3-(6-methoxyquinolin-4-yl)propyl]piperidine-3-carboxylic acid]	1 (≈ 2.03 µM)	0.25 (≈ 0.508 µM)	0.5 (≈ 1.02 µM)	0.25 (≈ 0.508 µM)	4 (≈ 8.12 µM)					
COc1ccc2nccc([C@@H](O)CC[C@@H]3CCN(C4CC(c5ccc(F)c(F)c5F)C4)C[C@@H]3C(=O)O)c2c1 (stereo partly drawn) [Example 197, (3R,4R)-4-[(3S)-3-hydroxy-3-(6-methoxyquinolin-4-yl)propyl]-1-[3-(2,3,4-trifluorophenyl)cyclobutyl] piperidine-3-carboxylic acid]	0.5 (≈ 0.946 µM)	< 0.0625	< 0.0625	< 0.0625	4 (≈ 7.57 µM)					
CCc1noc(C2CC(N3CC[C@@H](CCC(O)c4ccnc5ccc(OC)cc45)[C@@H](C(=O)O)C3)C2)n1 (stereo partly drawn) [Example 162, (3R,4R)-1-[3-(3-ethyl-1,2,4-oxadiazol-5-yl)cyclobutyl]-4-[3-hydroxy-3-(6-methoxyquinolin-4-yl)propyl]piperidine-3-carboxylic acid]	64 (≈ 129 µM)	64 (≈ 129 µM)	64 (≈ 129 µM)	32 (≈ 64.7 µM)	> 64					
COc1ccc2ncc(Cl)c([C@@H](O)CNC3(C(=O)O)CCCN(C4CC(c5ccccc5)C4)CC3)c2c1 (single isomer, unassigned) [Example 148]						4 µg/mL (≈ 7.63 µM)	1 µg/mL (≈ 1.91 µM)	1 µg/mL (≈ 1.91 µM)	1 µg/mL (≈ 1.91 µM)	4 (≈ 7.63 µM)
COc1ccc2nccc([C@@H](O)CC[C@@H]3CCN(C4CC(c5ccc(-c6ccccc6)cc5)C4)C[C@@H]3C(=O)O)c2c1 (stereo partly drawn) [Example 41, (3R,4R)-1-(3-biphenyl-4-ylcyclobutyl)-4-[(3S)-3-hydroxy-3-(6-methoxyquinolin-4-yl)propyl] piperidine-3-carboxylic acid]	> 64	> 64	> 64	> 64	> 64					
COc1ccc2nccc([C@@H](O)CC[C@@H]3CCN(C4CC(c5c(F)ccc(F)c5F)C4)C[C@@H]3C(=O)O)c2c1 (stereo partly drawn) [Example 195, (3R,4R)-4-[(3S)-3-hydroxy-3-(6-methoxyquinolin-4-yl)propyl]-1-[3-(2,3,6-trifluorophenyl)cyclobutyl] piperidine-3-carboxylic acid]	< 0.0625	< 0.0625	< 0.0625	< 0.0625	1 (≈ 1.89 µM)					
COc1ccc2ncc(Cl)c(C(O)CC[C@@H]3CCN(C4CC(c5ccccc5)C4)C[C@@H]3C(=O)O)c2c1 (stereo partly drawn) [Example 187, (3R,4R)-4-[3-(3-chloro-6-methoxyquinolin-4-yl)-3-hydroxypropyl]-1-(3-phenylcyclobutyl)piperidine-3-carboxylic acid]	< 0.0625	< 0.0625	< 0.0625	< 0.0625						1.00 (≈ 1.96 µM)
COc1ccc2nccc(C(O)CC[C@@H]3CCN(C4CC(c5cc(C)sn5)C4)C[C@@H]3C(=O)O)c2c1 (stereo partly drawn) [Example 22, (3R,4R)-4-[3-hydroxy-3-(6-methoxyquinolin-4-yl)propyl]-1-[3-(5-methylisothiazol-3-yl)cyclobutyl] piperidine-3-carboxylic acid]	4 (≈ 8.07 µM)	2 (≈ 4.04 µM)	1 (≈ 2.02 µM)	1 (≈ 2.02 µM)	8 (≈ 16.1 µM)					
COc1ccc2nccc(C(O)CC[C@@H]3CCN(C4CC(c5ccccc5)C4)CC3(C)C(=O)O)c2c1 (stereo partly drawn) [Example 13, (4R)-4-[3-hydroxy-3-(6-methoxyquinolin-4-yl)propyl]-3-methyl-1-(3-phenylcyclobutyl) piperidine-3-carboxylic acid]						4 µg/mL (≈ 8.19 µM)	2 µg/mL (≈ 4.09 µM)	4 µg/mL (≈ 8.19 µM)	2 µg/mL (≈ 4.09 µM)	32 (≈ 65.5 µM)
COc1ccc2ncc(F)c(C(O)CC[C@@H]3CCN(C4CC(c5c(F)cccc5F)C4)C[C@@H]3C(=O)O)c2c1 (single isomer, unassigned) [Example 19]						<=.0625 μg/ml	<=.0625 μg/ml	<=.0625 μg/ml	<=.0625 μg/ml	0.5 (≈ 0.946 µM)
